Entries after “also recorded” stand apart in the source; their conditions may differ.
System: mouse primary myoblasts
Experiment: Scratch migration assay, mouse primary myoblasts
Assay type: cell-based
Conditions: primary myoblasts; MDC at 50 μm
Description: Cellular polarization is indicative of increased motility (de Forges et al., 2012). Scratch assays were used to test whether Wnt7a and Fzd7 polarization affect cell motility. To exclude effects on the localization of cells arising from altered rates of proliferation, cells were treated with Mitomycin-C.
Fzd7 deficient cells migrated 59% less compared to heterozygous myoblasts and expression of Fzd7-Flag in Fzd7 knockout myoblasts restored migration to normal levels (FIG. 2D). […] To investigate whether the stimulation of myoblast migration is dose dependent, different concentrations of Wnt7a and Wnt3a were tested for their effect on migration.
Following plasmid transfection or application of Wnts (R&D Systems), the cells were treated with Mitomycin-C for 2 h (50 μg/mL). Subsequently, the monolayer of cells was scraped in a straight line. The plates were then extensively washed with culture medium and incubated for 24 h before analysis. Analysis was performed using DAPI staining after matching the reference points and enumeration of DAPI-stained nuclei in the scar was performed. Unless otherwise indicated, Wnt7a and Wnt3a were used at a concentration of 100 ng/mL in scratch assays. Monodansylcadaverine (MDC, 30432, Sigma) was used in scratch assays at a concentration of 50 μm.

## CN(C)c1cccc2c(S(=O)(=O)NCCCCCN)cccc12 [monodansylcadaverine, reference compound]
  effect on Wnt7a mediated migration in scratch assays: prevents Wnt7a induced migration; also recorded: prevented Wnt7a mediated migration

Source: patent US20170087188A1, “WNT INDUCED MOTILITY AND ENHANCED ENGRAFTMENT OF CELLS” (OTTAWA HOSPITAL RESEARCH INSTITUTE, priority 2014, published 2017)
